“Also recorded” adds a separate entry of the source.
Key:
Format in all cases: cell-based
[1] = test system: human dermal fibroblast (HDF) cells; test: Hyaluronic Acid (HA) assessment in human dermal fibroblasts; conditions: 10 consecutive days, n=6, change over emulsion control, retinol 1 μM; for B alone (% change in HA): active B of Table 3 alone, niacinamide 0.1%, Coleus forskohlii 0.001%, Tiliacora triandra 0.1%, Tetrapeptide 4 0.10%, phytol 0.010%; for A alone (% change in HA): active A of Table 3 alone, Tiliacora triandra 0.10%, glycolic acid 1 mM, KTFK 0.001%, sodium glycolate 10 μM
Description: A series of experiments was conducted to assess the effects of the treatment regimens of active ingredients on the production of hyaluronic acid (HA) in human dermal fibroblast (HDF) cells. The following five treatment regimens were assessed: (1) active ingredient A, alone; (2) active ingredient B, alone; (3) the combination of active ingredients A+B; (4) active ingredient A, alone, followed by active ingredient B, alone (“A/B”); and (5) active ingredient B, alone, followed by active ingredient A, alone (“B/A”). For treatment regimens (1), (2), and (3), the active ingredients were administered to cells for 10 consecutive days. For treatment regimens (4) and (5) (sequential regimens), the cells were treated with active ingredient A or active ingredient B for 5 days, followed by active ingredient B or active ingredient A for 5 days, respectively.
Human dermal fibroblast cells were grown in 96-well plates in DMEM media (available from CORNING, N.Y.) supplemented with 10% FBS and L-glutamine. After reaching about 75% confluence, cells were transferred into DMEM media without FBS, and incubated for 4-6 hours. Different wells were assigned to one of treatment regimens (1)-(5) as described above, with six wells allocated to each treatment regimen (i.e., n=6). All active ingredients were prepared as emulsions and applied directly to the HDF cells. The specific active ingredients used in each of the five treatment regimens are provided below in Table 3. Following treatment, cells were collected and the amount of hyaluronic acid (HA) secreted from the cells was measured using a commercially available HA assay (available from CORGENIX Inc., CO).
The results are summarized below in Table 4 and plotted in FIGS. 13-17 as a percentage change over control (i.e. cells treated with the same emulsion but in absence of active ingredients).

[2] = test system: human dermal fibroblast (HDF) cells; test: Hyaluronic acid in human dermal fibroblasts, pulsed versus daily treatment; conditions: for % Change in HA over control (daily): 12 consecutive days; for % Change in HA over control (daily) / % Change in HA over control (pulsed): Tiliacora triandra 0.05%, niacinamide 0.10%, glycolic acid 1 mM, retinol 1 μM, phytol 0.01%; for % Change in HA over control (pulsed): 2 days active / 2 days media without active, repeated over 12 days; for HA production, pulsed treatment compared with daily treatment: pulsed uses half as much active over 12 days
Description: After reaching about 75% confluence, cells were transferred into DMEM media without FBS, and incubated for 4-6 hours. Different wells were assigned to one of treatment regimens (1)-(2) as described above, with six wells allocated to each treatment regimen. All active ingredients were prepared as emulsions and applied directly to the HDF cells. […] Following treatment, cells were collected and the amount of hyaluronic acid (HA) secreted from the cells was measured using a commercially available HA assay (available from […] Inc., CO).

[3] = test system: Human 3D MelanoDerm MEL-B skin tissues; test: Melanin in 3D skin models (SOLVABLE melanin assay); conditions: 14 consecutive days, n=6, change from control, niacinamide 0.1%; for A (% change in pigmentation): active A of Table 8 alone, TDPA 1%; for B (% change in pigmentation): active B of Table 8 alone, hexylresorcinol 0.05%
Description: A series of experiments was conducted to assess the effects of treatment regimens of active ingredients shown in Table 8 on the production of melanin in 3D models. Four different treatment regimens were assessed: (1) active ingredient A, alone; (2) active ingredient B, alone; (3) the combination of active ingredients A+B; and (4) active ingredient A, alone, followed by active ingredient B, alone, as detailed in Table 8. For treatment regimens (1), (2), and (3), the active ingredients were applied to cells for 14 consecutive days. For treatment regimen (4) (sequential regimen), the cells were treated with active ingredient A for 7 days, followed by treatment with the other active ingredient B for 7 days.
Human 3D MelanoDerm MEL-B skin tissues (available from MatTek, Mass.) were cultured following the manufacture instructions. Different skin tissue models were assigned to one of treatment regimens (1)-(4) as described above, with six models allocated to each treatment regimen (i.e., n=6). All active ingredients were prepared as emulsions and applied directly to the skin models. Following treatment, skin tissue models were collected and the amount of melanin produced from the cells was measured using a SOLVABLE melanin assay. Treated skin tissues were prepared using a phosphate buffer saline and sodium bicarbonate. Each skin tissue is added to 500 μl of 0.5 M SOLVABLE solubilizer (available from Packard BioScience) and incubated at 95° overnight. The absorbance of each skin tissue sample is measured at 490 nm and the absorbance is compared to a standard curve to indicate the amount of melanin produced and pigmentation in each skin tissue model.
The results for treatments measuring the melanin content produced are shown in Table 9 as a percentage change from control (i.e., untreated samples or samples treated with the same emulsion but in absence of active ingredients).

[4] = test system: Human 3D skin EFT400FT tissues; test: HA in full thickness 3D skin models; conditions: 4 consecutive days, n=12; 4% glycolic acid topically or 0.2% Tiliacora triandra via growth media
Description: A series of experiments was conducted to assess the effects of the treatment regimens of glycolic acid and Tiliacora triandra on the production of hyaluronic acid (HA) on full thickness 3D skin cultures. Five different treatment regimens were assessed: (1) 4% glycolic acid, alone; (2) 0.2% Tiliacora triandra, alone; (3) the combination of 4% glycolic acid+0.2% Tiliacora triandra; (4) 4% glycolic acid, alone, followed by 0.2% Tiliacora triandra, alone; and (5) 0.2% Tiliacora triandra, alone, followed by 4% glycolic acid, alone. Glycolic acid was administered topically to the 3D tissue and Tiliacora triandra was administered via the growth media. For treatment regimens (1), (2), and (3), the active ingredient or ingredients were applied to cells for 4 consecutive days. For treatment regimens (4) and (5) (sequential regimens), the cells were treated with glycolic acid or Tiliacora triandra for 2 days, followed by Tiliacora triandra or glycolic acid for 2 days, respectively.
Human 3D skin EFT400FT tissues (MatTek, Mass.) were cultured following the manufacturer's instructions. Each treatment regimen was applied to twelve 3D skin samples. […] Following treatment, cells were collected and the amount of hyaluronic acid secreted from the cells was measured using a commercially available HA assay (available from CORGENIX Inc., CO). […]

[5] = test system: human dermal fibroblast (HDF) cells; test: Pro-collagen type I assessment in human dermal fibroblasts (ELISA); conditions: 10 consecutive days, change from emulsion control, retinol 1 μM; for A alone (% change in pro-collagen): active A of Table 6 alone, phytol 0.0001%
Description: A series of experiments was conducted to assess the effects of the treatment regimens of active ingredients shown in Table 6 on the production of pro-collagen type I in human dermal fibroblast (HDF) cells. Five different treatment regimens were assessed: (1) active ingredient A, alone; […] (3) the combination of active ingredients A+B; […] For treatment regimens (1), (2), and (3), the active ingredients were applied to cells for 10 consecutive days. […] After reaching about 75% confluence, cells were transferred into DMEM media without FBS, and incubated for 4-6 hours. Different wells were assigned to one of treatment regimens (1)-(5) as described above, with six wells allocated to each treatment regimen. All active ingredients were prepared as emulsions and applied directly to the HDF cells. The specific active ingredients used in each of the five treatment regimens are provided below in Table 6. Following treatment, measurements on the amount of pro-collagen produced from the cells were performed using a commercially available pro-collagen type I enzyme-linked immuno sorbent assay (ELISA) kit (available from TAKARA Inc., KR). [table]

[6] = test system: Human dermal fibroblast cells; test: Pro-collagen I secretion by human dermal fibroblasts (HTRF human pro-collagen I kit); conditions: 0.0001% phytol or 1 μM retinol alone for 16 days, re-treated every other day
Description: Human dermal fibroblast cells were grown in a 6-well plate in DMEM media (available from Corning, N.Y.) supplemented with 10% Fetal Bovine Serum (FBS) and L-glutamine (1.5×10^5 cells/plate) overnight. After reaching about 75% confluence, cells were transferred into DMEM media without FBS and incubated for 4-6 hours. Next, the cells were treated with either 0.0001% phytol or 1 μM retinol. Treatment with either phytol alone, or retinol alone was performed in DMEM media without FBS for 16 days. For sequential treatments, the cells were treated with 0.0001% phytol for 6 days followed by 1 μM retinol for 10 days, or with 1 μM retinol for 6 days, followed by 0.0001% phytol for 10 days. Every other day, media were collected and cells were re-treated with phytol or retinol in the same fashion. After treatment, the amount of collagen secreted into the culture media was determined using the HTRF human pro-collagen I kit (available from CISBIO, Inc).

| Compound | B alone (% change in HA) [1] [%] | % Change in HA over control (daily) [2] [%] | % Change in HA over control (pulsed) [2] [%] | A alone (% change in HA) [1] [%] | HA production, pulsed treatment compared with daily treatment [2] | also measured |
| --- | --- | --- | --- | --- | --- | --- |
| NC(=O)c1cccnc1 [Niacinamide] | −51.6 | −36.5 | 1.3 |  |  | A (% change in pigmentation) [3]: −18.9%; B (% change in pigmentation) [3]: −18.9% |
| Lys-Thr-Phe-Lys (KTFK; printed: Lys-Thr-Phe-Lys) |  |  |  | 23.7 |  |  |
| O=C(O)CCSCCC(=O)O [TDPA, thiodipropionic acid] |  |  |  |  |  | A (% change in pigmentation) [3]: −19.1% |
| O=C(O)CO [Glycolic Acid] |  | 9.1 | 5.1 | 20.8 | only slightly less effective than daily treatment | percentage change in HA over control, active alone [4]: 42.6% |
| CC1=C(/C=C/C(C)=C/C=C/C(C)=C/CO)C(C)(C)CCC1 [Retinol] | 11.7 | 17.2 | 32.0 | 11.7 | significantly more production of hyaluronic acid than in daily treatment regimens | A alone (% change in pro-collagen) [5]: 13.6%; B alone (% change in pro-collagen) ([5]; active B of Table 6 alone, Coleus forskohlii 0.001%): 3.9%; pro-collagen production over treatment time [6]: declines for both phytol- and retinol-treated cells after day 13 despite continuing treatment; also recorded: plateau in effectiveness over time |
| Tetrapeptide-4 [Tetrapeptide 4] | 15.1 |  |  |  |  |  |
| O=C([O-])CO.[Na+] [Sodium Glycolate] |  |  |  | −2.54 |  |  |
| CCCCCCc1ccc(O)cc1O [Hexylresorcinol] |  |  |  |  |  | B (% change in pigmentation) [3]: 140.4% |
| C/C(=C\CO)CCC[C@H](C)CCC[C@H](C)CCCC(C)C [Phytol] | 67.7 | −4.0 | 25.1 |  | significantly more production of hyaluronic acid than in daily treatment regimens | A alone (% change in pro-collagen) [5]: 19.1%; pro-collagen production over treatment time [6]: declines for both phytol- and retinol-treated cells after day 13 despite continuing treatment; also recorded: plateau in effectiveness over time |
